Data taken from publication PMC10779950, “Binding Free Energy Calculation Based on the Fragment Molecular Orbital Method and Its Application in Designing Novel SHP-2 Allosteric Inhibitors” (International Journal of Molecular Sciences, 2024).

Legend:
[1] = system: SHP-2; settings: SHP-2 ligand set; experimental binding free energy; ref Schrödinger FEP+ benchmark; cited from earlier work
[2] = system: SYK; design: method as in Schrödinger FEP+ benchmark; settings: FEP+ predicted binding free energy, ref Schrödinger FEP+ benchmark; cited from earlier work
[3] = system: c-Met; design: method as in earlier work; settings: FEP+ predicted ΔG from the benchmark; cited from earlier work
[4] = biological target: T1, SHP2^WT (1–593) (Homo sapiens, UniProt Q06124); test: SHP-2 prompt fluorescence phosphatase assay (DiFMUP), SHP2^WT; format: biochemical; settings: for IC50: SHP2^WT, DiFMUP substrate, averages of three independent experiments, read-out: SHP-2 IC50; for ΔGexp: converted from IC50 with ΔGexp ≈ kBTlog IC50
T1 construct: made in house; host or cells: E. coli BL21 Star (DE3), pET30 vector
T1 sequence (Q06124 1-593): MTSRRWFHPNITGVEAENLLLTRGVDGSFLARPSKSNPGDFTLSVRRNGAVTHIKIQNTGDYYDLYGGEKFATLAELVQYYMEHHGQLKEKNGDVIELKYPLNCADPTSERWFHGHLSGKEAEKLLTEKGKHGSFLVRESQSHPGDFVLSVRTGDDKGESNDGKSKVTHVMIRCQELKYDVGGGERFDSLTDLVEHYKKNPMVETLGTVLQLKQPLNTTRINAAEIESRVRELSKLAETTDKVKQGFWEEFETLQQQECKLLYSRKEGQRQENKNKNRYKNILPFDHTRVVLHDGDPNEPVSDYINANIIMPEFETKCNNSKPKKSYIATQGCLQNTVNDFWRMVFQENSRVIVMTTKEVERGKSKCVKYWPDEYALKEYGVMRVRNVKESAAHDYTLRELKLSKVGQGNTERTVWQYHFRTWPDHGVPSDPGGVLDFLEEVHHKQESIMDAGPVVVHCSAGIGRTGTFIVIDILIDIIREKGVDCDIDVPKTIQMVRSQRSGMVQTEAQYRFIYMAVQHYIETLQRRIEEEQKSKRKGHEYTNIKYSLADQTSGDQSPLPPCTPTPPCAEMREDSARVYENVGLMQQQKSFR
Description: (§1) Briefly, the constructs were transformed into BL21 Star^TM (DE3) cells and cultured at 37 °C for 3~4 h. Subsequently, the cells with high expression of SHP2 protein were harvested after being induced by IPTG and grown overnight at 18 °C. Cell pellets were resuspended in lysis buffer (25 mM imidazole, 50 mM Tris−HCl, 500 mM NaCl, 2.5 mM MgCl2, 1 mM tris(2-carboxyethyl)phosphine (TCEP), 1 μg/mL DNase1, and complete EDTA-free protease inhibitor) and lysed using Low Temperature Ultrahigh Pressure Continuous Flow Cell Disrupter (JNBIO), followed by ultracentrifugation. The supernatant was collected. Then, the SHP2 was purified from the collected supernatant by using HisTrap HP chelation column, TEV protease, and HiTrap Q FastFlow column.
(§2) Then, the mixture was then incubated at 25 °C for 60 min. To initiate the reaction, the surrogate substrate DiFMUP (Invitrogen, cat. no. D6567, Shuzhou, China, 200 μM) was added and incubated at 25 °C for another 30 min. […] Fluorescence signal was detected using a microplate reader (Bio-Tek, Shanghai, China, Synergy2) at Ex/Em = 340/450 nm. Using control-based normalization, normalized IC50 regression curves were fitted to inhibitor dose response curves.

[5] = system: THR-β; test: Experimental THR-β activity of agonists taken from Hu et al.; format: biochemical; settings: Table S4, converted from the experimental value
Description: In the initial phase of our investigation, we conducted a retrospective evaluation of FMOScore’s performance concerning thyroid hormone receptor β (THR-β) agonists, using a set of 18 compounds taken from the work of Hu et al. [65]

[6] = system: SYK; settings: experimental binding free energy, ref Schrödinger FEP+ benchmark; cited from earlier work
[7] = system: c-Met; design: method as in earlier work; settings: Schrödinger FEP+ benchmark; cited from earlier work
[8] = biological target: T2, SHP2^PTP (237–529) (Homo sapiens, UniProt Q06124); test: SHP-2 prompt fluorescence phosphatase assay (DiFMUP), SHP2^PTP; format: biochemical; settings: catalytic PTP domain construct
T2 construct: made in house; host or cells: E. coli BL21 Star (DE3), pET30 vector
T2 sequence (Q06124 237-529): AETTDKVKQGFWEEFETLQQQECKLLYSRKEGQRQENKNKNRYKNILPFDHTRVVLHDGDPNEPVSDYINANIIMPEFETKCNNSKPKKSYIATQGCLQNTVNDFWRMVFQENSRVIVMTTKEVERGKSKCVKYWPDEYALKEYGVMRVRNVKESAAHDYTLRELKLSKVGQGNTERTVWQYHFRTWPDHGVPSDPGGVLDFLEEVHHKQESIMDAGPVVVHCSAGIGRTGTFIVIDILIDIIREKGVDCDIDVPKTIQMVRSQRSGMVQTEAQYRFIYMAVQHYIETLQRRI
Description: as §1, §2

[9] = system: HIF-2α; settings: experimental binding free energy, ref Schrödinger FEP+ benchmark; cited from earlier work
[10] = system: TNKS2; design: method as in Schrödinger FEP+ benchmark; settings: FEP+ predicted binding free energy, ref Schrödinger FEP+ benchmark; cited from earlier work
[11] = system: TNKS2; settings: experimental binding free energy, ref Schrödinger FEP+ benchmark; cited from earlier work

| SMILES | Exp. ΔG [1] [kcal/mol] | FEP [2] [kcal/mol] | FEP [3] [kcal/mol] | IC50 [4] [µM] | ΔGexp [4] [kcal/mol] | fold reduced inhibition on morphing the piperazine ring (relative to compound 1) ([4]; ratio of IC50) [fold] | ΔGexp [5] [kcal/mol] | Exp. ΔG [6] [kcal/mol] | Exp. ΔG [7] [kcal/mol] | IC50 [8] [µM] | Exp. ΔG [9] [kcal/mol] | inhibitory activity against SHP-2 (in words) ([4]; Figure S4, DIFMUP substrate, mean ± SD (n = 3)) | fold decrease of biochemical inhibition compared to SHP099 ([4]; ratio of IC50) [fold] | FEP [10] [kcal/mol] | Exp. ΔG [11] [kcal/mol] |
| --- | --- | --- | --- | --- | --- | --- | --- | --- | --- | --- | --- | --- | --- | --- | --- |
| O=[N+]([O-])c1cc(Br)cnc1Sc1cccc(Cl)c1Cl [Compound S4] | -5.82 | – | – | – | – | – | – | – | – | – | – | – | – | – | – |
| Nc1cc(NC2CCNCC2)cnc1-c1cccc(Cl)c1Cl [Compound 4, 2-(2,3-dichlorophenyl)-N5-(piperidin-4-yl) pyridine-3,5-diamine] | – | -9.49 | -7.41 | 23.5 ± 2.86 | -6.311 | 15 | -5.453 | -11.36 | -8.9 | – | – | – | – | – | – |
| CC1(N)CCN(c2cnc(-c3cccc(Cl)c3Cl)c(N)c2)CC1 [Compound 1, 5-(4-amino-4-methylpiperidin-1-yl)-2-(2,3-dichlorophenyl) pyridin-3-amine] | – | -12.21 | -9.88 | 1.49 ± 0.024 | -7.943 | – | -8.186 | -12.39 | -9.14 | > 100 | -11.32 | potent inhibitory activity | 16 | – | – |
| Nc1cc(NC2CCNC2)cnc1-c1cccc(Cl)c1Cl (stereo not drawn) [Compound 3, 2-(2,3-dichlorophenyl)-N5-(pyrrolidin-3-yl) pyridine-3,5-diamine] | – | -6.76 | -5.97 | 5.17 ± 1.08 | -7.207 | – | -8.435 | -8.64 | -7.46 | – | – | – | – | – | – |
| CC1(N)CCN(c2cnc(Sc3cccc(Cl)c3Cl)c(N)c2)CC1 [Compound 7, 5-(4-amino-4-methylpiperidin-1-yl)-2-((2,3-dichlorophenyl)thio)pyridin-3-amine] | – | -10.29 | -9.19 | 11.3 ± 1.19 | -6.747 | – | -7.406 | -10.79 | -8.73 | – | – | – | – | -9.01 | -8.4 |
